Values quoted from earlier work as cited in patent US20190343774A1, “Compositions and Methods for Treating Neurologic Disorders” (PALUPA MEDICAL LTD., priority 2011, published 2019).

Test system: relapsing multiple sclerosis

Substance | reduction of the annualized relapse rate (two-year trials) | decrease of the possibility of disability accumulation (known) | decrease on ARR (known)
glatiramer acetate | about one third | – | –
Tysabri®: monoclonal antibody; second-line MS drug | – | 43% | 68%
